pIC50: −log10 of the molar value.
Legend:
HEK-Blue-hTLR7 cells = target: T1, HEK-Blue-hTLR7 cells (Homo sapiens, UniProt Q9NYK1); assay: HEK-Blue-hTLR7 cell inhibition assay; format: cell-based; conditions: R848 0.8 µM, 16 h, OD 620 nm, read-out: TLR7 IC50
T1 construct: expressed in transfected cells; host or cells: HEK-Blue-hTLR7 cells (HEK293-derived reporter line)
T1 sequence (Q9NYK1 27-1049): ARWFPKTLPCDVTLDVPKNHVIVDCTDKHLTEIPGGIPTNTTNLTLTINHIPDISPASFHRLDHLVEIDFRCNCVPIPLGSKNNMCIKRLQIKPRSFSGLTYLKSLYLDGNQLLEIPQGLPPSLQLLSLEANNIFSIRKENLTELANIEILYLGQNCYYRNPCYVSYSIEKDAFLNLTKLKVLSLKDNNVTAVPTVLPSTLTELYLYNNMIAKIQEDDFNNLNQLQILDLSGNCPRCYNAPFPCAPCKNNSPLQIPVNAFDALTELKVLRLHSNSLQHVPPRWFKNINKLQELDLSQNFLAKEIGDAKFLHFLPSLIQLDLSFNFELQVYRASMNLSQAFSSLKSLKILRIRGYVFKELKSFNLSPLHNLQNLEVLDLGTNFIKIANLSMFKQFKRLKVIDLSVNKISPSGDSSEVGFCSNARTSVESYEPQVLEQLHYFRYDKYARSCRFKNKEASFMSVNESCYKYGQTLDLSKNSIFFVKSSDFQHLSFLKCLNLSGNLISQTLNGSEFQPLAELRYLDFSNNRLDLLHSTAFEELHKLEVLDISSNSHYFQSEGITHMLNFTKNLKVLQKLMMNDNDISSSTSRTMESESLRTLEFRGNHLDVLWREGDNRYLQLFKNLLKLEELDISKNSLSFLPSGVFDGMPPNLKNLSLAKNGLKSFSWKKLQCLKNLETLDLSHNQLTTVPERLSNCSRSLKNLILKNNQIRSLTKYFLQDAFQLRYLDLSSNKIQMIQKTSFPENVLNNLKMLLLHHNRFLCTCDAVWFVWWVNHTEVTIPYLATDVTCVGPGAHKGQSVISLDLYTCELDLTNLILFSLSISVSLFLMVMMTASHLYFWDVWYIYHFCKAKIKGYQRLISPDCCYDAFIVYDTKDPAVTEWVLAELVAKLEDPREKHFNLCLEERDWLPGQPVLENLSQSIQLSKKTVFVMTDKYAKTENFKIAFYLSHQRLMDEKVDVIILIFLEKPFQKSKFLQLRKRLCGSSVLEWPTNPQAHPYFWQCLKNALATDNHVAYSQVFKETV
Description: (§1) HEK-Blue-hTLR7/8/9 cell inhibition assay
(§2) 1. HEK-Blue-hTLR7/8 cells (1 × 10^4 cells/well) and HEK-Blue-hTLR9 cells (1.5 × 10^4 cells/well) were seeded in a 384-well cell culture plate, with a volume of 30 µL per well. The plate was incubated at 37°C in a 5% CO2 incubator for 4 h. 2. The compound was prepared with DMSO and diluted in DMEM medium to 10 concentrations (1:3 dilution), with final concentrations of 10000, 3333.3, 1111.1, 370.4, 123.5, 41.2, 13.7, 4.6, 1.5, and 0.5 nM; R848 was prepared with DMSO and diluted in DMEM medium, with final concentrations of 0.8 µM (HEK-Blue-hTLR7) and 3 µM (HEK-Blue-hTLR8); ODN2006 was prepared with endotoxin-free water and diluted in DMEM medium, with a final concentration of 1 µM. 3. Cells treated with DMSO were used as the blank control group, while cells treated solely with Resiquimod (R848) were used as the positive control group for HEK-Blue-hTLR7/8, and cells treated solely with ODN2006 were used as the positive control group for HEK-Blue-hTLR9. Cells treated with the test compound together with R848 or ODN2006 were used as the test group. Two parallel wells were set for each group and were placed at 37°C in a 5% CO2 incubator for incubation. 4. After being incubated for 4 h, the 384-well plate of HEK-Blue-hTLR7/8 was taken out from the incubator, and R848 alone or both R848 and the diluted compound were separately added into each well. The plate was placed at 37°C in a 5% CO2 incubator for incubation for 16 h; the 384-well plate of HEK-Blue-hTLR9 was taken out from the incubator, and ODN2006 alone or both ODN2006 and the diluted compound were added separately to each well. The plate was incubated at 37°C in a 5% CO2 incubator for 16 h. 5. After being incubated for 16 h, the 384-well plate was removed from the incubator and centrifuged at 1000 rpm for 1 minute. The optical density value of each well at 620 nm was measured using a multifunctional microplate reader. 6. The cell inhibition rate was calculated as (1-(OD620 test group-OD620 blank group)/(OD620 positive group-OD620 blank group))×100%, and the half maximal inhibitory concentration (IC50) was calculated through curve fitting. Table 1: Activity of the compounds of the present disclosure in HEK-Blue-hTLR7/8/9 cellular assays

HEK-Blue-hTLR8 cells = target: T2, HEK-Blue-hTLR8 cells (Homo sapiens, UniProt Q9NR97); assay: HEK-Blue-hTLR8 cell inhibition assay; format: cell-based; conditions: R848 3 µM, 16 h, OD 620 nm, read-out: TLR8 IC50
T2 construct: expressed in transfected cells; host or cells: HEK-Blue-hTLR8 cells (HEK293-derived reporter line)
T2 sequence (Q9NR97 27-1041): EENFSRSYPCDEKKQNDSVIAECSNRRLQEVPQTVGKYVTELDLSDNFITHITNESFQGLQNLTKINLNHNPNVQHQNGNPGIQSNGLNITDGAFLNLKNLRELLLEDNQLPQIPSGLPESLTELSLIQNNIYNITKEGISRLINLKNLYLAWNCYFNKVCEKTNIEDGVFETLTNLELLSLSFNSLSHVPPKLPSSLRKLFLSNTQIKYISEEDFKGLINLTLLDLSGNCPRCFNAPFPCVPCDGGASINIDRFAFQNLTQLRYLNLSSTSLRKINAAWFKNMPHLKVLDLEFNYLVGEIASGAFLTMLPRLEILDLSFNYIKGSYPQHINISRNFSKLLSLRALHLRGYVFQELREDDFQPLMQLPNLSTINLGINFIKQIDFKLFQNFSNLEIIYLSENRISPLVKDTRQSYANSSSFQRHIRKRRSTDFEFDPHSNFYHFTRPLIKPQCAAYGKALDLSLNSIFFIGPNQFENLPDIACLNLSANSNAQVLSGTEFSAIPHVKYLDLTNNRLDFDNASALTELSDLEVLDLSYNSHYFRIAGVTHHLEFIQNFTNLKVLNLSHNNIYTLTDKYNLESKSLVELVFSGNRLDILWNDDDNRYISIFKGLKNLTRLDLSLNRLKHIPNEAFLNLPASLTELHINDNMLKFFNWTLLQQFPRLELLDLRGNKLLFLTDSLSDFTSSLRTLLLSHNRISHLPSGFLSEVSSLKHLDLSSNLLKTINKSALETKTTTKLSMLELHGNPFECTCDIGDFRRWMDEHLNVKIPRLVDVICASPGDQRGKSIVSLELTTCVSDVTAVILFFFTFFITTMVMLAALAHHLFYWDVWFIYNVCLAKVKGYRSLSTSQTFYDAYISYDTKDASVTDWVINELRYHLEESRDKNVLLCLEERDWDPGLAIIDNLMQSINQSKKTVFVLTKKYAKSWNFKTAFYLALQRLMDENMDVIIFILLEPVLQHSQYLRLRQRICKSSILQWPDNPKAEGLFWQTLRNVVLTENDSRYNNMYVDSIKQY
Description: as §1, §2

CN1CC2(CC(c3nnc([C@]45CN(c6ccc(C(F)(F)F)c7ncccc67)C[C@@]4(C(F)(F)F)C5)o3)C2)C1 [Compound 16, 2-(2-methyl-2-azaspiro[3.3]heptan-6-yl)-5-((1S,5R)-5-(trifluoromethyl)-3-(8-(trifluoromethyl)quinolin-5-yl)-3-azabicyclo[3.1.0]hexan-1-yl)-1,3,4-oxadiazole]
pIC50 (HEK-Blue-hTLR7 cells): > 7.00 | pIC50 (HEK-Blue-hTLR8 cells): > 7.00

N#Cc1ccc(N2C[C@]3(c4nnc(OCCN5CCCC5)o4)C[C@]3(C(F)(F)F)C2)c2cccnc12 [Compound 48, 5-((1S,5R)-1-(5-(2-(pyrrolidin-1-yl)ethoxy)-1,3,4-oxadiazol-2-yl)-5-(trifluoromethyl)-3-azabicyclo[3.1.0]hexan-3-yl)quinoline-8-carbonitrile]
pIC50 (HEK-Blue-hTLR7 cells): > 7.00 | pIC50 (HEK-Blue-hTLR8 cells): > 7.00

CN1CCC(c2nnc([C@]34CN(c5ccc(C#N)c6nc(Cl)ccc56)C[C@@]3(C(F)(F)F)C4)o2)CC1 [Compound 58, 2-chloro-5-((1S,5R)-1-(5-(1-methylpiperidin-4-yl)-1,3,4-oxadiazol-2-yl)-5-(trifluoromethyl)-3-azabicyclo[3.1.0]hexan-3-yl)quinoline-8-carbonitrile]
pIC50 (HEK-Blue-hTLR7 cells): < 6.00 | pIC50 (HEK-Blue-hTLR8 cells): < 6.00

COc1ccc2c(N3C[C@]4(c5nnc(C6CCN(C)CC6)o5)C[C@]4(C(F)(F)F)C3)ccc(C#N)c2n1 [Compound 61, 2-methoxy-5-((1S,5R)-1-(5-(1-methylpiperidin-4-yl)-1,3,4-oxadiazol-2-yl)-5-(trifluoromethyl)-3-azabicyclo[3.1.0]hexan-3-yl)quinoline-8-carbonitrile]
pIC50 (HEK-Blue-hTLR7 cells): < 6.00 | pIC50 (HEK-Blue-hTLR8 cells): > 6.00

CN1CCC(c2nnc([C@]34CN(c5ccc([N+](=O)[O-])c6ncccc56)C[C@@]3(C(F)(F)F)C4)o2)CC1 [Compound 62, 2-(1-methylpiperidin-4-yl)-5-((1S,5R)-3-(8-nitroquinolin-5-yl)-5-(trifluoromethyl)-3-azabicyclo[3.1.0]hexan-1-yl)-1,3,4-oxadiazole]
pIC50 (HEK-Blue-hTLR7 cells): > 7.00 | pIC50 (HEK-Blue-hTLR8 cells): > 7.00

CN1CCN(c2nnc([C@]34CN(c5ccc(C#N)n6ncc(F)c56)C[C@@]3(C(F)(F)F)C4)o2)CC1 [Compound 63, 3-fluoro-4-((1S,5R)-1-(5-(4-methylpiperazin-1-yl)-1,3,4-oxadiazol-2-yl)-5-(trifluoromethyl)-3-azabicyclo[3.1.0]hexan-3-yl)pyrazolo[1,5-a]pyridine-7-carbonitrile]
pIC50 (HEK-Blue-hTLR7 cells): > 7.00 | pIC50 (HEK-Blue-hTLR8 cells): > 7.00

Cc1ccc(N2C[C@]3(c4nnc(C5CCN(C)CC5)o4)C[C@]3(C(F)(F)F)C2)c2cccnc12 [Compound 65, 2-(1-methylpiperidin-4-yl)-5-((1S,5R)-5-(trifluoromethyl)-3-(8-methylquinolin-5-yl)-3-azabicyclo[3.1.0]hexan-1-yl)-1,3,4-oxadiazole]
pIC50 (HEK-Blue-hTLR7 cells): > 7.00 | pIC50 (HEK-Blue-hTLR8 cells): > 7.00

CN1CCC(c2nnc([C@]34CN(c5ccc(Cl)c6ncccc56)C[C@@]3(C(F)(F)F)C4)o2)CC1 [Compound 67, 2-((1S,5R)-3-(8-chloroquinolin-5-yl)-5-(trifluoromethyl)-3-azabicyclo[3.1.0]hexan-1-yl)-5-(1-methylpiperidin-4-yl)-1,3,4-oxadiazole]
pIC50 (HEK-Blue-hTLR7 cells): > 7.00 | pIC50 (HEK-Blue-hTLR8 cells): > 7.00

CN1CCC(c2nnc([C@]34CN(c5cnc(C#N)c6ncccc56)C[C@@]3(C(F)(F)F)C4)o2)CC1 [Compound 68, 5-((1S,5R)-1-(5-(1-methylpiperidin-4-yl)-1,3,4-oxadiazol-2-yl)-5-(trifluoromethyl)-3-azabicyclo[3.1.0]hexan-3-yl)-1,7-naphthyridine-8-carbonitrile]
pIC50 (HEK-Blue-hTLR7 cells): > 7.00 | pIC50 (HEK-Blue-hTLR8 cells): > 7.00

CN1CCC(c2nnc([C@]34CN(c5ccc(F)c6ncccc56)C[C@@]3(C(F)(F)F)C4)o2)CC1 [Compound 69, 2-((1S,5R)-3-(8-fluoroquinolin-5-yl)-5-(trifluoromethyl)-3-azabicyclo[3.1.0]hexan-1-yl)-5-(1-methylpiperidin-4-yl)-1,3,4-oxadiazole]
pIC50 (HEK-Blue-hTLR7 cells): > 7.00 | pIC50 (HEK-Blue-hTLR8 cells): > 7.00

CCc1nc2c(C#N)ccc(N3C[C@]4(c5nnc(C6CCN(C)CC6)o5)C[C@]4(C(F)(F)F)C3)c2nc1CC [Compound 70, 2,3-diethyl-8-((1S,5R)-1-(5-(1-methylpiperidin-4-yl)-1,3,4-oxadiazol-2-yl)-5-(trifluoromethyl)-3-azabicyclo[3.1.0]hexan-3-yl)quinoxaline-5-carbonitrile]
pIC50 (HEK-Blue-hTLR7 cells): < 6.00 | pIC50 (HEK-Blue-hTLR8 cells): < 5.00

CN1CCC(c2nnc([C@]34CN(c5ccc(C#N)c6c5ccc(=O)n6C)C[C@@]3(C(F)(F)F)C4)o2)CC1 [Compound 72, 1-methyl-5-((1S,5R)-1-(5-(1-methylpiperidin-4-yl)-1,3,4-oxadiazol-2-yl)-5-(trifluoromethyl)-3-azabicyclo[3.1.0]hexan-3-yl)-2-oxo-1,2-dihydroquinoline-8-carbonitrile]
pIC50 (HEK-Blue-hTLR7 cells): < 6.00 | pIC50 (HEK-Blue-hTLR8 cells): > 6.00

Cc1ccc2c(N3C[C@]4(c5nnc(C6CCN(C)CC6)o5)C[C@]4(C(F)(F)F)C3)ccc(C#N)c2n1 [Compound 73, 2-methyl-5-((1S,5R)-1-(5-(1-methylpiperidin-4-yl)-1,3,4-oxadiazol-2-yl)-5-(trifluoromethyl)-3-azabicyclo[3.1.0]hexan-3-yl)quinoline-8-carbonitrile]
pIC50 (HEK-Blue-hTLR7 cells): < 6.00 | pIC50 (HEK-Blue-hTLR8 cells): < 6.00

— patent EP4806891A1 (Kangbaida (Sichuan) Biotechnology Co., Ltd., priority 2023, dated 2025)
